How the values were obtained:
[1] = molar heat capacity at constant pressure; settings: 101.33 kPa, Liquid, Small sample (50 mg) DSC
[2] = 101.33 kPa, Liquid, Vibrating tube method

Brc1ccccc1 [bromobenzene]
Settings | mass density [kg/m3] | molar heat capacity at constant pressure [J/K/mol]
[1], 283.15 K | – | 151.63
[1], 285.15 K | – | 151.99
[1], 287.15 K | – | 152.37
[1], 289.15 K | – | 152.75
[1], 291.15 K | – | 153.14
[1], 293.15 K | – | 153.54
[1], 295.15 K | – | 153.94
[1], 297.15 K | – | 154.35
[1], 299.15 K | – | 154.77
[1], 301.15 K | – | 155.19
[1], 303.15 K | – | 155.62
[1], 305.15 K | – | 156.05
[1], 307.15 K | – | 156.49
[1], 309.15 K | – | 156.93
[1], 311.15 K | – | 157.38
[1], 313.15 K | – | 157.83
[1], 315.15 K | – | 158.28
[1], 317.15 K | – | 158.74
[1], 319.15 K | – | 159.2
[1], 321.15 K | – | 159.66
[1], 323.15 K | – | 160.13
[1], 325.15 K | – | 160.6
[1], 327.15 K | – | 161.06
[1], 329.15 K | – | 161.53
[1], 331.15 K | – | 162
[1], 333.15 K | – | 162.48
[1], 335.15 K | – | 162.95
[1], 337.15 K | – | 163.42
[1], 339.15 K | – | 163.89
[1], 341.15 K | – | 164.36
[1], 343.15 K | – | 164.83
[1], 345.15 K | – | 165.3
[1], 347.15 K | – | 165.76
[1], 349.15 K | – | 166.23
[1], 351.15 K | – | 166.69
[1], 353.15 K | – | 167.15
[2], 288.15 K | 1501.95 | –
[2], 298.15 K | 1488.45 | –
[2], 308.15 K | 1474.94 | –
[2], 318.15 K | 1461.39 | –
[2], 328.15 K | 1447.8 | –
[2], 338.15 K | 1434.15 | –

Clc1ccccc1Cl [1,2-dichlorobenzene]
Settings | mass density [kg/m3] | molar heat capacity at constant pressure [J/K/mol]
[1], 283.15 K | – | 167.68
[1], 285.15 K | – | 168.06
[1], 287.15 K | – | 168.44
[1], 289.15 K | – | 168.83
[1], 291.15 K | – | 169.23
[1], 293.15 K | – | 169.64
[1], 295.15 K | – | 170.05
[1], 297.15 K | – | 170.47
[1], 299.15 K | – | 170.89
[1], 301.15 K | – | 171.32
[1], 303.15 K | – | 171.76
[1], 305.15 K | – | 172.2
[1], 307.15 K | – | 172.64
[1], 309.15 K | – | 173.09
[1], 311.15 K | – | 173.54
[1], 313.15 K | – | 174
[1], 315.15 K | – | 174.46
[1], 317.15 K | – | 174.92
[1], 319.15 K | – | 175.38
[1], 321.15 K | – | 175.85
[1], 323.15 K | – | 176.32
[1], 325.15 K | – | 176.79
[1], 327.15 K | – | 177.26
[1], 329.15 K | – | 177.73
[1], 331.15 K | – | 178.2
[1], 333.15 K | – | 178.67
[1], 335.15 K | – | 179.14
[1], 337.15 K | – | 179.61
[1], 339.15 K | – | 180.07
[1], 341.15 K | – | 180.54
[1], 343.15 K | – | 181
[1], 345.15 K | – | 181.47
[1], 347.15 K | – | 181.92
[1], 349.15 K | – | 182.38
[1], 351.15 K | – | 182.83
[1], 353.15 K | – | 183.28
[2], 288.15 K | 1311.76 | –
[2], 298.15 K | 1300.61 | –
[2], 308.15 K | 1289.45 | –
[2], 318.15 K | 1278.29 | –
[2], 328.15 K | 1267.09 | –
[2], 338.15 K | 1255.87 | –

Brc1ccccc1Br [1,2-dibromobenzene]
Settings | mass density [kg/m3] | molar heat capacity at constant pressure [J/K/mol]
[1], 283.15 K | – | 177.44
[1], 285.15 K | – | 177.83
[1], 287.15 K | – | 178.12
[1], 289.15 K | – | 178.43
[1], 291.15 K | – | 178.75
[1], 293.15 K | – | 179.08
[1], 295.15 K | – | 179.42
[1], 297.15 K | – | 179.76
[1], 299.15 K | – | 180.12
[1], 301.15 K | – | 180.48
[1], 303.15 K | – | 180.85
[1], 305.15 K | – | 181.22
[1], 307.15 K | – | 181.6
[1], 309.15 K | – | 181.99
[1], 311.15 K | – | 182.38
[1], 313.15 K | – | 182.77
[1], 315.15 K | – | 183.17
[1], 317.15 K | – | 183.57
[1], 319.15 K | – | 183.97
[1], 321.15 K | – | 184.38
[1], 323.15 K | – | 184.79
[1], 325.15 K | – | 185.19
[1], 327.15 K | – | 185.6
[1], 329.15 K | – | 186.01
[1], 331.15 K | – | 186.42
[1], 333.15 K | – | 186.82
[1], 335.15 K | – | 187.23
[1], 337.15 K | – | 187.63
[1], 339.15 K | – | 188.03
[1], 341.15 K | – | 188.42
[1], 343.15 K | – | 188.82
[1], 345.15 K | – | 189.2
[1], 347.15 K | – | 189.58
[1], 349.15 K | – | 189.96
[1], 351.15 K | – | 190.33
[1], 353.15 K | – | 190.69
[2], 288.15 K | 1987.92 | –
[2], 298.15 K | 1972.75 | –
[2], 308.15 K | 1957.62 | –
[2], 318.15 K | 1942.51 | –
[2], 328.15 K | 1927.42 | –
[2], 338.15 K | 1912.34 | –

Clc1cccc(Cl)c1Cl [1,2,3-trichlorobenzene]
[1]
Settings | molar heat capacity at constant pressure [J/K/mol]
327.15 K | 201.44
329.15 K | 201.8
331.15 K | 202.16
333.15 K | 202.52
335.15 K | 202.88
337.15 K | 203.25
339.15 K | 203.62
341.15 K | 204
343.15 K | 204.38
345.15 K | 204.75
347.15 K | 205.14
349.15 K | 205.52
351.15 K | 205.91
353.15 K | 206.3

Clc1cccc(Br)c1 [1-bromo-3-chlorobenzene]
Settings | mass density [kg/m3] | molar heat capacity at constant pressure [J/K/mol]
[1], 283.15 K | – | 171.14
[1], 285.15 K | – | 171.49
[1], 287.15 K | – | 171.84
[1], 289.15 K | – | 172.21
[1], 291.15 K | – | 172.59
[1], 293.15 K | – | 172.97
[1], 295.15 K | – | 173.36
[1], 297.15 K | – | 173.75
[1], 299.15 K | – | 174.15
[1], 301.15 K | – | 174.56
[1], 303.15 K | – | 174.98
[1], 305.15 K | – | 175.4
[1], 307.15 K | – | 175.82
[1], 309.15 K | – | 176.25
[1], 311.15 K | – | 176.68
[1], 313.15 K | – | 177.12
[1], 315.15 K | – | 177.56
[1], 317.15 K | – | 178
[1], 319.15 K | – | 178.44
[1], 321.15 K | – | 178.89
[1], 323.15 K | – | 179.33
[1], 325.15 K | – | 179.78
[1], 327.15 K | – | 180.23
[1], 329.15 K | – | 180.68
[1], 331.15 K | – | 181.13
[1], 333.15 K | – | 181.58
[1], 335.15 K | – | 182.03
[1], 337.15 K | – | 182.47
[1], 339.15 K | – | 182.92
[1], 341.15 K | – | 183.36
[1], 343.15 K | – | 183.8
[1], 345.15 K | – | 184.24
[1], 347.15 K | – | 184.67
[1], 349.15 K | – | 185.1
[1], 351.15 K | – | 185.52
[1], 353.15 K | – | 185.94
[2], 288.15 K | 1638.44 | –
[2], 298.15 K | 1624.97 | –
[2], 308.15 K | 1611.51 | –
[2], 318.15 K | 1598.05 | –
[2], 328.15 K | 1584.56 | –
[2], 338.15 K | 1571.05 | –

Clc1ccc(Cl)c(Cl)c1Cl [1,2,3,4-tetrachlorobenzene]
[1]
Settings | molar heat capacity at constant pressure [J/K/mol]
327.15 K | 225.17
329.15 K | 225.49
331.15 K | 225.82
333.15 K | 226.14
335.15 K | 226.47
337.15 K | 226.8
339.15 K | 227.13
341.15 K | 227.46
343.15 K | 227.8
345.15 K | 228.13
347.15 K | 228.47
349.15 K | 228.81
351.15 K | 229.16
353.15 K | 229.5

Clc1ccccc1 [chlorobenzene]
Settings | mass density [kg/m3] | molar heat capacity at constant pressure [J/K/mol]
[1], 283.15 K | – | 147.73
[1], 285.15 K | – | 148.14
[1], 287.15 K | – | 148.56
[1], 289.15 K | – | 148.99
[1], 291.15 K | – | 149.41
[1], 293.15 K | – | 149.85
[1], 295.15 K | – | 150.29
[1], 297.15 K | – | 150.73
[1], 299.15 K | – | 151.18
[1], 301.15 K | – | 151.64
[1], 303.15 K | – | 152.1
[1], 305.15 K | – | 152.56
[1], 307.15 K | – | 153.03
[1], 309.15 K | – | 153.5
[1], 311.15 K | – | 153.97
[1], 313.15 K | – | 154.45
[1], 315.15 K | – | 154.93
[1], 317.15 K | – | 155.41
[1], 319.15 K | – | 155.9
[1], 321.15 K | – | 156.39
[1], 323.15 K | – | 156.88
[1], 325.15 K | – | 157.37
[1], 327.15 K | – | 157.86
[1], 329.15 K | – | 158.36
[1], 331.15 K | – | 158.86
[1], 333.15 K | – | 159.35
[1], 335.15 K | – | 159.85
[1], 337.15 K | – | 160.35
[1], 339.15 K | – | 160.85
[1], 341.15 K | – | 161.35
[1], 343.15 K | – | 161.85
[1], 345.15 K | – | 162.35
[1], 347.15 K | – | 162.85
[1], 349.15 K | – | 163.34
[1], 351.15 K | – | 163.84
[1], 353.15 K | – | 164.34
[2], 288.15 K | 1111.9 | –
[2], 298.15 K | 1101.14 | –
[2], 308.15 K | 1090.34 | –
[2], 318.15 K | 1079.48 | –
[2], 328.15 K | 1068.57 | –
[2], 338.15 K | 1057.58 | –

Clc1ccc(Cl)cc1 [1,4-dichlorobenzene]
[1]
Settings | molar heat capacity at constant pressure [J/K/mol]
327.15 K | 177.09
329.15 K | 177.53
331.15 K | 177.98
333.15 K | 178.43
335.15 K | 178.89
337.15 K | 179.35
339.15 K | 179.81
341.15 K | 180.28
343.15 K | 180.76
345.15 K | 181.24
347.15 K | 181.73
349.15 K | 182.22
351.15 K | 182.71
353.15 K | 183.21
